# Source: patent publication US9469854B2, “Pharmaceutical composition for treating liver diseases” (Academia Sinica, priority 2014, dated 2016)
# Tests used:
# miR-21-3p = assay: qRT-PCR microRNA assay in primary human hepatocytes; type: cell-based; settings: PHHs, 40 μM berberine, 2 h
# Experimental: The primary human hepatocytes from Caucasian donors were purchased from Invitrogen and cultured following the manufacturer's instructions. The hepatocytes were thawed and transferred into cryopreserved hepatocytes recovery medium (CM7000, Invitrogen), centrifuging at room temperature, 100×g for 10 min. Then, the hepatocytes were diluted to seeding density with plating medium (CM3000, Invitrogen) and added into collagen I-coated plates (Invitrogen). These plates were incubated at 37° C. for 4-6 hours under 5% CO2 for forming a monolayer. Then, plating medium was replaced by overlay incubation medium (CM4000 and 0.35 mg/mL Geltrex™ Matrix, Invitrogen), and the incubation medium was replaced daily. In the following examples, hepatocytes form 3 to 4 donors were used for experiments. A 50 mM stock solution of berberine chloride (Sigma-Aldrich) was prepared in dimethyl sulfoxide (DMSO). Cells were treated with 40 μM of berberine chloride or 0.08% DMSO as the control. For induction of lipid droplets formation in cultured cells, 200 μM of oleic acid (Sigma-Aldrich) was added into the culture medium for 24 h. Total RNA was extracted using a TRIZOL reagent (Invitrogen) according to the manufacturer's protocol. The total RNA quantity was measured using a NanoDrop ND-1000 spectrophotometer (Nanodrop Technologies). […]
# ACACA = assay: Western blot protein expression in HepG2 cells; type: cell-based, human; settings: HepG2, mimic transfection, 72 h
# Experimental: (§1) The human HepG2 cells and HEK 293T cells used in the following examples were originally obtained from the American Tissue Culture Collection (ATCC, USA). The human HCC HepG2 cell line was cultured in Minimum Essential Medium Eagle (Sigma) supplemented with 10% fetal bovine serum (FBS) (Invitrogen), 2.2 g/L of sodium bicarbonate (Sigma), 0.1 mM of non-essential amino acids (Caisson), 1 mM of sodium pyruvate (Invitrogen), and 10 of ml/L penicillin-streptomycin-amphotericin solution (Biological Industries). Human HEK-293T cells were maintained in high-glucose Dulbecco's modified eagle medium (Invitrogen) supplemented with 10% FBS and 3.7 g/L of sodium bicarbonate (Sigma). Both cell lines were cultured at 37° C. and 5% CO2.
# (§2) The HepG2 cells were transfected at a density of 5×10^4 cells per well in a 24-well culture plates with either 50 nM of hsa-miR-21-3p (miR-21-3p mimic) or negative-control mimic (NC mimic), or with either 100 nM of hsa-miR-21-3p inhibitor (miR-21-3p inhibitor) or negative-control inhibitor (NC inhibitor) by using the DharmaFECT 4 transfection reagent (Thermo Scientific Dharmacon) according to the manufacturer's instructions. Cells were incubated for 24 h or 48 h with a microRNA mimic or inhibitor prior to RNA purification for gene expression analysis, and were incubated for 72 h for protein expression analysis.
# (§3) Total cell lysates were prepared using a lysis buffer (7 M of urea, 4% CHAPS, 2 M of thiourea, 40 mM of Tris, 65 mM of dithioerythritol). Protein samples were separated using 12.5% SDS-PAGE and then transferred to PVDF membranes. The following primary antibodies were used: rabbit polyclone anti-MAT1A (1:800, GeneTex), anti-MAT2A (1:1000, GeneTex), anti-MAT2B (1:1000, GeneTex), anti-ACACB (1:1000, Sigma), anti-DGAT2 (1:1000, GeneTex) and anti-GAPDH (1:3000, GeneTex) and mouse monoclone anti-ACACA (1:1000, Millipore). The goat polyclonal anti-rabbit or anti-mouse IgG antibody conjugated with HRP (1:5000, abcam) was used as the secondary antibody. The bands were imaged using the LAS-4000 mini luminescent image analyzer (Fujifilm). The quantification of western blot analysis was achieved by using Image J software. The protein expression levels were normalized to the GAPDH levels.
# ACACB = assay: Western blot protein expression in HepG2 cells; type: cell-based, human; settings: HepG2, mimic transfection, 72 h
# Experimental: as §1, §2, §3
# DGAT2 = assay: Western blot protein expression in HepG2 cells; type: cell-based, human; settings: HepG2, miR-21-3p over-expressed, 72 h
# Experimental: as §1, §2, §3
# MAT1A = assay: Western blot protein expression in HepG2 cells; type: cell-based, human; settings: HepG2, mimic transfection 72 h
# Experimental: as §1, §2, §3
# MAT2A = assay: Western blot protein expression in HepG2 cells; type: cell-based, human; settings: HepG2, mimic transfection 72 h
# Experimental: as §1, §2, §3
# MAT2B = assay: Western blot protein expression in HepG2 cells; type: cell-based, human; settings: HepG2, mimic transfection 72 h
# Experimental: as §1, §2, §3
# HepG2 cells = assay: BrdU incorporation cell proliferation assay; type: cell-based, human; settings: HepG2, mimic 24 h plus additional 24 h BrdU, vs NC mimic
# Experimental: The HepG2 cells were seeded at a density of 1×10^4 cells per well in a 96-well culture plate the day before transfection. After transfection with 50 nM of hsa-miR-21-3p mimic or the negative-control mimic for 24 h, the cultured media were refreshed with complete media containing the BrdU reagent, and incubated for an additional 24 hour for BrdU incorporation. The BrdU incorporation was quantified by using the BrdU cell proliferation colorimetric ELISA kit (abcam) according to the manufacturer's protocol and detected using the MRX II microplate reader (DYNEX).
# [1] = system: intracellular malonyl-CoA; assay: Measurement of intracellular malonyl-CoA concentration in HepG2 cells; type: cell-based, human; settings: HepG2, 72-h mimic transfection
# Experimental: After transfection with 50 nM of miR-21-3p mimic or the negative-control mimic for 72 h, the PHH cells and HepG2 cells were trypsinized. The intracellular malonyl-CoA concentration was measured using the malonyl-CoA ELISA Kit (MyBioSource) according to the manufacturer's instructions.
Compound,miR-21-3p expression (qRT-PCR) (miR-21-3p),decrease in protein expression of ACACA (ACACA) [fold],decrease in protein expression of ACACB (ACACB) [fold],decrease in protein level of DGAT2 (DGAT2) [fold],MAT1A protein expression increase (MAT1A) [fold],MAT2A protein expression decrease (MAT2A) [fold],MAT2B protein expression decrease (MAT2B) [fold],inhibition of cellular proliferation (BrdU incorporation) (HepG2 cells) [fold],intracellular malonyl-CoA concentration decrease [1] [fold]
COc1ccc2cc3[n+](cc2c1OC)CCc1cc2c(cc1-3)OCO2 [berberine],up-regulation,–,–,–,–,–,–,–,–
"hsa-miR-21-3p (CAACACCAGUCGAUGGGCUGU; listed as RNA, chemistry not given here) [miR-21-3p mimic]",–,2.3,1.6,3.3,1.7,2.6,3.4,1.7,1.6
